The IC50 is the concentration that gives 50% inhibition.

In assay [1] the test system is EBV-B cell line 9065 (DRB1*1301/DQB1*0603). The assay can be described thus: Flow cytometry binding of biotinylated peptides to EBV-B cells. As to conditions: biotinylated peptide, EBV-B 9065 cells. On the set-up: species or system human. Here is the method:
For flow cytometry, EBV-B cells or L cells (2×10^5 cells), were incubated with an equal volume (100 μl) of biotinylated peptide (200 μg/ml) in each well of a U-bottomed 96-well plate. Following a 4-hour incubation on ice with gentle agitation, the unbound peptides were removed by washing. To increase the sensitivity of the fluorescent signal, two layers of FITC-Avidin were used to label the cells by incubating first with FITC-Avidin D, followed by biotinylated anti-Avidin D and again FITC-Avidin DCS (Vetor, Burlingame Calif.). Propidium Iodide (2.8 μg/ml) was added prior to FACS analysis to allow gating on viable cells.
Background: In flow cytometry, cells or beads pass a laser one at a time.

Assay [2] deals with T1, DQ 9 (DQA1*0201/DQB1*0303) (Homo sapiens, UniProt P01909+P01920, A45G/C70K/E183D/E77G/F237L/F77L/G63E/H199R/I129T/K197E/L178F/L74F/Q57E/Q76R/R75H/S185I/S97I/T217I/V73L/Y48F/Y58L).
T1 construct: made in house; host or cells: insect cells, baculovirus expression system
The assay can be described thus: Peptide competition assay, soluble DQ molecules. It is filed as binding. As to conditions: soluble DQ 9 (FIG. 3A).

For assay [3], the target named is DQ 7 (DQA1*0501/DQB1*0301) (Homo sapiens, UniProt P01909+P01920). The assay can be described thus: Peptide competition assay, soluble DQ molecules. It is filed as binding. The following applies: soluble DQ 7 (FIG. 3B).
In a further assay the target is T2, DR 1 (DRB1*0101) (Homo sapiens, UniProt P01903+P01911, A100R/D57E/F55L/F60I/F76Y/I96L/L162R/M171V/P40L/Q125E/R42F/V115G/Y59C).
T2 construct: The class II molecules in the cell extracts were purified by immunoaffnity; endogenous in cells
The assay can be described thus: biochemical. The format is binding. As to conditions: DR 1 DRB1*0101, biotinyl-peptide GFK(A)7; read-out: Competitor Peptide IC50.

For a further assay, the target named is T3, DR 2 (DRB5*0101) (Homo sapiens, UniProt P01903+Q30154).
T3 construct: expressed in transfected cells; host or cells: L cell transfectant L416.3
The assay can be described thus: biochemical. It is filed as binding. The following applies: DR 2 DRB5*0101, biotinyl-peptide MBP; read-out: Competitor Peptide IC50.

The next assay deals with T4, DR 3 (DRB1*0301) (Homo sapiens, UniProt P01903+P01911, A100K/A102G/A103R/A169T/F55Y/I96L/K41T/L162R/M171V/P40S/Q125H/Q178H/Q39Y/R42S/S66N/T106N/T262R/W38E/Y61H).
T4 construct: The class II molecules in the cell extracts were purified by immunoaffnity; endogenous in cells
The experiment in a line: biochemical. As to conditions: DR 3 DRB1*0301, biotinyl-peptide IAYD(A)5; read-out: Competitor Peptide IC50. It is filed as binding.

Another assay has as its target T5, DR 4 (DRB1*0401) (Homo sapiens, UniProt P01903+P01911, A100K/A169T/F76Y/I96L/K127E/L162R/M171V/N62H/P40V/Q125Y/R42H/S133A/S149N/S66Y/V115G/V209L/W38E).
T5 construct: The class II molecules in the cell extracts were purified by immunoaffnity; endogenous in cells
The experiment in a line: biochemical. The format is binding.

The target in a further assay is DR 7 (DRB1*0701) (Homo sapiens, UniProt P01903+P01911, A100R/A102G/A103Q/D57E/D86V/E43K/F76Y/K127E/L162R/M171V/P40G/Q125H/Q99D/R33Q/R42Y/R54Q/S133A/S66F/T210M/V115G/Y107V/Y59L/Y89S). The assay can be described thus: biochemical. The format is binding. The following applies: DR 7 DRB1*0701, biotinyl-peptide GFK(A)7, pH 5; read-out: Competitor Peptide IC50.
The target of the next assay is DR 8 (DRB1*0801) (Homo sapiens, UniProt P01903+P01911, A100R/A103L/A169T/D86S/F76Y/H45Y/I96F/K41T/L162R/M171V/P40S/Q125H/Q178H/Q39Y/Q99D/R218S/R42G/S66Y/V115G/W38E). The assay can be described thus: biochemical. It is filed as binding. The following applies: DR 8 DRB1*0801, biotinyl-peptide GYR(A)6L; read-out: Competitor Peptide IC50.
In a further assay the target is DR 11 (5) (DRB1*1101) (Homo sapiens, UniProt P01903+P01911, A100R/A169T/A87E/I96F/K41T/L162R/M171V/P40S/Q125H/Q178H/Q39Y/Q99D/R42S/S66Y/T262R/V115G/W38E). The assay can be described thus: biochemical. As to conditions: DR 11 (5) DRB1*1101, biotinyl-peptide TT831-843; read-out: Competitor Peptide IC50. The format is binding.
The next assay deals with DR 13 (DRB1*1301) (Homo sapiens, UniProt P01903+P01911, A100E/A169T/K41T/L162R/M171V/P40S/Q125H/Q178H/Q39Y/Q99D/R42S/S66N/T262R/W38E/Y61H). The experiment in a line: biochemical. The following applies: soluble DR 13, indicator GFK(A)7 (FIG. 2B); read-out: IC50, inhibition of binding of biotinylated GFK(A)7.

Read-outs that look alike come from different tables or passages of the source. Where no end group is shown, it is not given here. The star is where a group is joined. Biotin = O=C1N[C@H]2[C@H](CS[C@H]2CCCCC(=O)*)N1

Take “Biotinyl-T1: NH2 terminal biotinylated T1 peptide (Biotin-DPNANPNVDPNANPNV)”: in [1], the MFC entry is on record as “could not be detected”.

On to `CSCC[C@H](NC(=O)[C@H](CCCNC(=N)N)NC(=O)[C@H](CCSC)NC(=O)[C@H](CCCCN)NC(=O)[C@H](CO)NC(=O)[C@@H](NC(=O)[C@@H]1CCCN1C(=O)[C@H](CCCCN)NC(=O)[C@@H]1CCCN1C(=O)[C@@H]1CCCN1C(=O)[C@@H](N)CCCCN)C(C)C)C(=O)N[C@@H](C)C(=O)N[C@H](C(=O)N1CCC[C@H]1C(=O)N[C@@H](CC(C)C)C(=O)N[C@@H](CC(C)C)C(=O)N[C@@H](CCSC)C(=O)N[C@@H](CCC(N)=O)C(=O)N[C@@H](C)C(=O)O)[C@@H](C)O` [CLIP83-101], for which the IC50 in assay [2] and in assay [3] was 0.5 µM in each case.

In the case of `CC(C)[C@H](NC(=O)[C@H](CC(N)=O)NC(=O)[C@@H]1CCCN1C(=O)[C@H](CC(N)=O)NC(=O)[C@H](C)NC(=O)[C@H](CC(N)=O)NC(=O)[C@@H]1CCCN1C(=O)[C@H](CC(=O)O)NC(=O)[C@@H](NC(=O)[C@H](CC(N)=O)NC(=O)[C@@H]1CCCN1C(=O)[C@H](CC(N)=O)NC(=O)[C@H](C)NC(=O)[C@H](CC(N)=O)NC(=O)[C@@H]1CCCN1C(=O)[C@@H](N)CC(=O)O)C(C)C)C(=O)O` [T1], the IC50 was more than 100 µM at DR 1 (DRB1*0101); more than 100 µM on DR 2 (DRB5*0101); more than 100 µM on DR 3 (DRB1*0301); more than 100 µM on DR 4 (DRB1*0401) (DR 4 DRB1*0401, biotinyl-peptide UD4, read-out: Competitor Peptide IC50); more than 100 µM on DR 4 (DRB1*0401) (soluble DR 4, indicator GFK(A)7 (FIG. 2A), read-out: IC50, inhibition of binding of biotinylated GFK(A)7); more than 100 µM on DR 7 (DRB1*0701). The IC50 at DR 8 (DRB1*0801), on DR 11 (5) (DRB1*1101) and at DR 13 (DRB1*1301) was more than 100 µM throughout.

Values taken from patent publication US6669945B1, “Universal T-cell epitopes for anti-malarial vaccines” (New York University, priority 1997, dated 2003).
